Results published in patent publication US8772480B2, “Inhibitors of PI3 kinase and/or mTOR” (priority 2009, dated 2014).

Assays:
PI3Kα = PI3Kα (Homo sapiens (Human), UniProt P42336); conditions: read-out: PI3Kα AlphaScreen ® Ki
[1] = tested on: phosphorylation of Akt at Serine 473 in U87 MG cells; assay: cells; conditions: Homo sapiens, U-87 MG, 2 h, read-out: U87Cell IC50, pAkt (Ser 473), U87 MG cells, two hours with compound

Chain of PI3Kα (P42336 whole entry): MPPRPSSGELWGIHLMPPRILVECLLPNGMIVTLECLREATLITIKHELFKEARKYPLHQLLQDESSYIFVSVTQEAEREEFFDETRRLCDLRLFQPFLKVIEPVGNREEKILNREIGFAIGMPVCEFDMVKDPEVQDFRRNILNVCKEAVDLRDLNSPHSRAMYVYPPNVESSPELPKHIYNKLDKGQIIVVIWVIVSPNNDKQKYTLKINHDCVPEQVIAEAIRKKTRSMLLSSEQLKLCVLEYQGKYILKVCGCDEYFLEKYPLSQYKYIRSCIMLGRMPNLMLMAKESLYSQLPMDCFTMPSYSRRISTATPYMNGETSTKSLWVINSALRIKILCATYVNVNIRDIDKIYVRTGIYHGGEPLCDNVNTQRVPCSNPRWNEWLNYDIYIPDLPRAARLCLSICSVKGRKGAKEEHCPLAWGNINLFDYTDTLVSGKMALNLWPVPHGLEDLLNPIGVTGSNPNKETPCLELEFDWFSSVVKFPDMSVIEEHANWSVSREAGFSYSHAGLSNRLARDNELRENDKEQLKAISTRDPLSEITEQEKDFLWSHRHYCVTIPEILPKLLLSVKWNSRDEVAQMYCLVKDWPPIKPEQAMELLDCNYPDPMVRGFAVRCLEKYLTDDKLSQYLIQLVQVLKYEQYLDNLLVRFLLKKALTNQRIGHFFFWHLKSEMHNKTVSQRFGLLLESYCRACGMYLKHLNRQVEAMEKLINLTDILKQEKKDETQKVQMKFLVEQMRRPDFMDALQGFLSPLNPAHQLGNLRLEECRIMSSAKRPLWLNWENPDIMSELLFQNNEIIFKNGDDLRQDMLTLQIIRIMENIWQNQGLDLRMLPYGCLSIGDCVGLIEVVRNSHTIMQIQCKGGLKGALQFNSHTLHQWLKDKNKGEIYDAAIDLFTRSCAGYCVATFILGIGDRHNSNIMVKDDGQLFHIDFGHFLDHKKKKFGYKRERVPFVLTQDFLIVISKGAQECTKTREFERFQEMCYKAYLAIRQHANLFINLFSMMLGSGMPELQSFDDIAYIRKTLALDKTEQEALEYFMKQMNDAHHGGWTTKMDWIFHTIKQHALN
Chain of PI3Kα (P27986 whole entry partner): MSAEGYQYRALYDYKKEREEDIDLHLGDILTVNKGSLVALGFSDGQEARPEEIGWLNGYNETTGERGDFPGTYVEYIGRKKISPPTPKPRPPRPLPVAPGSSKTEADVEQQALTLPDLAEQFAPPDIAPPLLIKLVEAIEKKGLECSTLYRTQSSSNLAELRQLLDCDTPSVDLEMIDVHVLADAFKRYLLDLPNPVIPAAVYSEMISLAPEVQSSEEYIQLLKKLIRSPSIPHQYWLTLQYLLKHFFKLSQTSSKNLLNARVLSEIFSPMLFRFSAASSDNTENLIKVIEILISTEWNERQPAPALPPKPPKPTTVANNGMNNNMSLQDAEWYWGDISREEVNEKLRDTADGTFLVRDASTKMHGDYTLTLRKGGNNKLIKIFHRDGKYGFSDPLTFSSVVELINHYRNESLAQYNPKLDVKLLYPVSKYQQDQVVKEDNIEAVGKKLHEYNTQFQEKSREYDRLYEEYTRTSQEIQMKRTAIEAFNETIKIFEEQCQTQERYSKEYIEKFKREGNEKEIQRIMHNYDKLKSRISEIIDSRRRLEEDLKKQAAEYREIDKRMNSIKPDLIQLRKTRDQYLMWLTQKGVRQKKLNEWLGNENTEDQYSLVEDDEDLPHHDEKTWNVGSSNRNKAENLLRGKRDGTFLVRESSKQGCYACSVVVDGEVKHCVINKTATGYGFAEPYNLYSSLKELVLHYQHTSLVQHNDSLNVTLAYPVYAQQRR

Structure (SMILES)	Ki (PI3Kα) [nM]	IC50 [1] [nM]
COc1ccc(Nc2nc(N3CCCCC3)ncc2-c2nc(C)nc(N)n2)cn1 [Example 123, 4-(4-(6-methoxypyridin-3-ylamino)-2-(piperidin-1-yl)pyrimidin-5-yl)-6-methyl-1,3,5-triazin-2-amine]	102	> 10000
COc1ccc(Nc2ncc(CN3CCSCC3)cc2-c2nc(C)nc(N)n2)cn1 [Example 201, 4-(2-(6-Methoxypyridin-3-Ylamino)-5-(Thiomorpholinomethyl)Pyridin-3-yl)-6-Methyl-1,3,5-Triazin-2-Amine]	94	66
Cc1nc(N)nc(-c2cc(CN3CCN(S(C)(=O)=O)CC3)cnc2Nc2ccc3[nH]cnc3c2)n1 [Example 260, N-(3-(4-Amino-6-Methyl-1,3,5-Triazin-2-yl)-5-((4-(Methylsulfonyl)Piperazin-1-yl)Methyl)Pyridin-2-yl)-1H-Benzo[D]Imidazol-5-Amine]	16	1030
COc1ncc(Nc2ncc([C@@H](C)N3CCN(S(C)(=O)=O)CC3)cc2-c2nc(C)nc3[nH]cnc23)cc1F [Example 297, (R)—N-(5-Fluoro-6-Methoxypyridin-3-yl)-3-(2-Methyl-9H-Purin-6-yl)-5-(1-(4-(Methylsulfonyl)Piperazin-1-yl)Ethyl)Pyridin-2-Amine]	1	9
COCCOc1ccc(-c2nc(C)nc(N)n2)c(Nc2cnc(OC)c(F)c2)n1 [Example 259, 4-(2-(5-Fluoro-6-Methoxypyridin-3-Ylamino)-6-(2-Methoxyethoxy)Pyridin-3-yl)-6-Methyl-1,3,5-Triazin-2-Amine]	81	190
Cc1nc(N)nc(-c2cc(C(C)N3CCN(C(=O)N(C)C)CC3)cnc2Nc2ccc3scnc3c2)n1 (stereo not shown) [Example 289, 4-(1-(5-(4-Amino-6-Methyl-1,3,5-Triazin-2-yl)-6-(Benzo[D]Thiazol-5-Ylamino)Pyridin-3-yl)Ethyl)-N,N-Dimethylpiperazine-1-Carboxamide]	60	111
COc1ccc(Nc2ncc(-c3ccccn3)cc2-c2nc(C)nc(N)n2)cn1 [Example 172, 5′-(4-Amino-6-Methyl-1,3,5-Triazin-2-yl)-N-(6-Methoxypyridin-3-yl)-2,3′-Bipyridin-6′-Amine]	6	58
COc1ccc(Nc2ncc(-c3cncc(F)c3)cc2-c2nc(C)nc(N)n2)cn1 [Example 253, 5-(4-Amino-6-Methyl-1,3,5-Triazin-2-yl)-5′-Fluoro-N-(6-Methoxypyridin-3-yl)-3,3′-Bipyridin-6-Amine]	12	280
CC(=O)Nc1ccc(Nc2ncc(CN3CCN(S(C)(=O)=O)CC3)cc2-c2nc(C)nc(N)n2)cn1 [Example 196, N-(5-(3-(4-Amino-6-Methyl-1,3,5-Triazin-2-yl)-5-((4-(Methylsulfonyl)Piperazin-1-yl)Methyl)Pyridin-2-Ylamino)Pyridin-2-yl)Acetamide]	52	322
COc1ncc(Nc2nc(COCC(F)(F)F)ccc2-c2nc(C)nc(N)n2)cc1F [Example 199, 4-(2-(5-Fluoro-6-Methoxypyridin-3-Ylamino)-6-((2,2,2-Trifluoroethoxy)Methyl)Pyridin-3-yl)-6-Methyl-1,3,5-Triazin-2-Amine]	68	227
COc1ccc(Nc2ncc(CNCc3ccccn3)cc2-c2nc(C)nc3[nH]cnc23)cn1 [Example 136, N-(6-methoxypyridin-3-yl)-3-(2-methyl-9H-purin-6-yl)-5-((pyridin-2-ylmethylamino)methyl)pyridin-2-amine]	54	124
Cc1nc(-c2cnccc2Nc2cccc3[nH]ncc23)c2nc[nH]c2n1 [Example 110, N-(3-(2-methyl-9H-purin-6-yl)pyridin-4-yl)-1H-indazol-4-amine]	264	2420
COc1ccc(Nc2ncc(CNc3ccccn3)cc2-c2nc(C)nc3[nH]cnc23)cn1 [Example 82, N-(6-methoxypyridin-3-yl)-3-(2-methyl-9H-purin-6-yl)-5-((pyridin-2-ylamino)methyl)pyridin-2-amine]	25	226
COc1ccc(Nc2ncc(CN3CC(O)C3)cc2-c2nc(C)nc(N)n2)cn1 [Example 229, 1-((5-(4-Amino-6-Methyl-1,3,5-Triazin-2-yl)-6-(6-Methoxypyridin-3-Ylamino)Pyridin-3-yl)Methyl)Azetidin-3-ol]	59	276

Further lines, results first:

Ki (PI3Kα) [nM]	IC50 [1] [nM]	Structure (SMILES)
10	3	Cc1nc(N)nc(-c2cc(C(C)N3CCOCC3)cnc2Nc2cnc(Cl)c(NS(=O)(=O)N(C)C)c2)n1 (stereo not shown) [Example 370, N-(5-(3-(4-Amino-6-Methyl-1,3,5-Triazin-2-yl)-5-(1-Morpholinoethyl)Pyridin-2-Ylamino)-2-Chloropyridin-3-yl)-N,N-Dimethylaminosulfamide]
12	140	Cc1nc(-c2cc(Cc3ccc(S(C)(=O)=O)cc3)cnc2Nc2ccc(N)nc2)c2nc[nH]c2n1 [Example 106, N5-(3-(2-methyl-9H-purin-6-yl)-5-(4-(methylsulfonyl)benzyl)pyridin-2-yl)pyridine-2,5-diamine]
851	> 10000	Cc1nc(N)nc(-c2cc(F)cnc2Nc2cncc(F)c2)n1 [Example 186, 4-(5-Fluoro-2-(5-Fluoropyridin-3-Ylamino)Pyridin-3-yl)-6-Methyl-1,3,5-Triazin-2-Amine]
34	46	COc1ccc(Nc2ncc([C@H](O)C(F)(F)F)cc2-c2nc(C)nc(N)n2)cn1 [Example 323, (S)-1-(5-(4-amino-6-methyl-1,3,5-triazin-2-yl)-6-(6-methoxypyridin-3-ylamino)pyridin-3-yl)-2,2,2-trifluoroethanol]
59	16	C=Cc1cnc(Nc2cnc(Cl)c(NS(C)(=O)=O)c2)c(-c2cc(N)nc(C)n2)c1 [Example 380, N-(5-(3-(6-Amino-2-Methylpyrimidin-4-yl)-5-Vinylpyridin-2-Ylamino)-2-Chloropyridin-3-yl)Methanesulfonamide]
8	9	Cc1nc(N)nc(-c2cc(C(C)N3CCOCC3)cnc2Nc2cnc(Cl)c(NS(C)(=O)=O)c2)n1 (stereo not shown) [Example 369, N-(5-(3-(4-Amino-6-Methyl-1,3,5-Triazin-2-yl)-5-(1-Morpholinoethyl)Pyridin-2-Ylamino)-2-Chloropyridin-3-yl)Methanesulfonamide]
5	53	COc1ccc(Nc2ncc(C(C)c3ccc(S(C)(=O)=O)cc3)cc2-c2nc(C)nc(N)n2)cn1 (stereo not shown) [Example 149, 4-(2-(6-Methoxypyridin-3-Ylamino)-5-(1-(4-(Methylsulfonyl)Phenyl)Ethyl)Pyridin-3-yl)-6-Methyl-1,3,5-Triazin-2-Amine]
3	4	COc1ncc(Nc2ncc(C(C)N3CCN(S(C)(=O)=O)CC3)nc2-c2cc(N)nc(C)n2)cc1F (stereo not shown) [Example 283, 6-(3-(5-Fluoro-6-Methoxypyridin-3-Ylamino)-6-(1-(4-(Methylsulfonyl)Piperazin-1-yl)Ethyl)Pyrazin-2-yl)-2-Methylpyrimidin-4-Amine]
69	146	COc1ncc(Nc2ncc(C(C)N)cc2-c2nc(C)nc(N)n2)cc1F (stereo not shown) [Example 327, 4-(5-(1-Aminoethyl)-2-(5-Fluoro-6-Methoxypyridin-3-Ylamino)Pyridin-3-yl)-6-Methyl-1,3,5-Triazin-2-Amine]
